The text below walks through data of patent US20240226115A1, “AXL INHIBITOR COMPOUNDS” (ARCUS BIOSCIENCES, INC., priority 2021, published 2024).

In assay [1] the target is T1, Axl (Homo sapiens, UniProt P30530).
T1 sequence (P30530 26-894): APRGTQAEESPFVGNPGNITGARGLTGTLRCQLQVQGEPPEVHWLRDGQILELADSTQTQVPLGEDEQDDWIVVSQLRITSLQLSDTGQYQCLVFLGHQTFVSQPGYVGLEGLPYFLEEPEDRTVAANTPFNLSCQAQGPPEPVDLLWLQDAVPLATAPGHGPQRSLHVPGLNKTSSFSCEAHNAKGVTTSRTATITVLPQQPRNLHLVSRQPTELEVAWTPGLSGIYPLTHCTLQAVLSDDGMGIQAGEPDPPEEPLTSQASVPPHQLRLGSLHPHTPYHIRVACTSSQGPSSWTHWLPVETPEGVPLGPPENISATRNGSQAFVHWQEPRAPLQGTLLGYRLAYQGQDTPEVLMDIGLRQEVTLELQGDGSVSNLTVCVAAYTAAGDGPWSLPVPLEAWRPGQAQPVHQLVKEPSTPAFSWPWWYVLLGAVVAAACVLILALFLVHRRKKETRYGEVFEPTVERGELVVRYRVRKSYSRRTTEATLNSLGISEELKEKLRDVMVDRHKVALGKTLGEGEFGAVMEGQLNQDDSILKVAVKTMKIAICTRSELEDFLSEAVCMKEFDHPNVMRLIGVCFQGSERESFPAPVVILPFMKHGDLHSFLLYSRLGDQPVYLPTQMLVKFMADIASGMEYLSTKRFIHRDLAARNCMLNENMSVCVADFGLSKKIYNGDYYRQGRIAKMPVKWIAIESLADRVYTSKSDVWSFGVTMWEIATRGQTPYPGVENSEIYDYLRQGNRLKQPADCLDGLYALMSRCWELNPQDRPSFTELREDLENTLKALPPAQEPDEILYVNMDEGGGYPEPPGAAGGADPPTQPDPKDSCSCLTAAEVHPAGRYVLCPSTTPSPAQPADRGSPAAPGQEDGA
The assay can be described thus: Axl NanoBRET intracellular kinase assay (Cell Binding). More on the design: host or cells: HEK-293. To be noted: HEK-293 cells transfected with Axl-NanoLuc fusion vector; displacement of K-5 NanoBRET tracer. The method in brief: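 Intracellular binding measured as loss of BRET (610 nm/450 nm) when compounds displace 0.35 μM K-5 tracer from Axl-NanoLuc in transfected HEK-293 cells.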

Assay [2] concerns the target T1, Axl. The assay can be described thus: HTRF KinEASE-TK biochemical potency, AXL. More on the design: purchased Invitrogen. The settings on record: 5 nM AXL, 700 μM ATP. The method in brief: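 Enzyme preincubated with compound 1 h at RT; final 5 nM AXL or 1 nM TYRO3/MER, 800 nM TK substrate-biotin, 700 μM ATP, HEPES pH 7.4, MgCl2, 1% DMSO, 2 h at RT. HTRF 665/620 ratio read after streptavidin-XL665/cryptate antibody detection; percent activity relative to DMSO and pre-stopped controls.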

In the case of `O=C1NCCOc2cc(-c3n[nH]c4ncc(-c5ccc6c(c5)CCC(N[C@H]5CCOC5)CC6)cc34)ccc21` (stereo partly drawn) [Example 45, 8-[5-(7-{[(3S)—Oxolan-3-yl]amino}-6,7,8,9-tetrahydro-5H-benzo[7]annulen-2-yl)-1H-pyrazolo[3,4-b]pyridin-3-yl]-2,3,4,5-tetrahydro-1,4-benzoxazepin-5-one], the IC50 on Axl [1] and against Axl [2] was below 100 nM each time.
For `O=C1NCCOc2cc(-c3n[nH]c4ncc(-c5ccc6c(c5)CCC(N[C@@H]5CCOC5)CC6)cc34)ccc21` (stereo partly drawn) [Example 46, 8-[5-(7-{[(3R)—Oxolan-3-yl]amino}-6,7,8,9-tetrahydro-5H-benzo[7]annulen-2-yl)-1H-pyrazolo[3,4-b]pyridin-3-yl]-2,3,4,5-tetrahydro-1,4-benzoxazepin-5-one], the IC50 at Axl [1] and at Axl [2] was below 100 nM in each case.
With `O=C1NCCOc2cc(-c3n[nH]c4ncc(-c5ccc6c(c5)CCC(N5CCOCC5)CC6)cc34)ccc21` (centres unmarked) [Example 47, 8-{5-[7-(Morpholin-4-yl)-6,7,8,9-tetrahydro-5H-benzo[7]annulen-2-yl]-1H-pyrazolo[3,4-b]pyridin-3-yl}-2,3,4,5-tetrahydro-1,4-benzoxazepin-5-one], the IC50 on Axl [1] and against Axl [2] was below 100 nM in each case.
Take `O=C1NCCOc2cc(-c3n[nH]c4ncc(-c5ccc6c(c5)CCC(N5CCNCC5)CC6)cc34)ccc21` (centres unmarked) [Example 48, 8-{5-[7-(Piperazin-1-yl)-6,7,8,9-tetrahydro-5H-benzo[7]annulen-2-yl]-1H-pyrazolo[3,4-b]pyridin-3-yl}-2,3,4,5-tetrahydro-1,4-benzoxazepin-5-one]: the values for the IC50 at Axl [1] and on Axl [2] were 100 to 1000 nM and below 100 nM, respectively.
For `O=C1NCCOc2cc(-c3n[nH]c4ncc(-c5ccc6c(c5)CCC(N5CCC[C@@H]5CO)CC6)cc34)ccc21` (stereo partly drawn) [Example 49, 8-(5-{7-[(2R)-2-(Hydroxymethyl)pyrrolidin-1-yl]-6,7,8,9-tetrahydro-5H-benzo[7]annulen-2-yl}-1H-pyrazolo[3,4-b]pyridin-3-yl)-2,3,4,5-tetrahydro-1,4-benzoxazepin-5-one], the 50% inhibitory concentration (IC50) at Axl [1] and at Axl [2] was below 100 nM throughout.
Take `O=C1NCCOc2cc(-c3n[nH]c4ncc(-c5ccc6c(c5)CCC(N5CCC[C@H]5CO)CC6)cc34)ccc21` (stereo partly drawn) [Example 50, 8-(5-{7-[(2S)-2-(Hydroxymethyl)pyrrolidin-1-yl]-6,7,8,9-tetrahydro-5H-benzo[7]annulen-2-yl}-1H-pyrazolo[3,4-b]pyridin-3-yl)-2,3,4,5-tetrahydro-1,4-benzoxazepin-5-one]: the IC50 at Axl [1] and against Axl [2] was below 100 nM throughout.
As to `O=C1NCCOc2cc(-c3n[nH]c4ncc(-c5ccc6c(c5)CCC(N5CC[C@@H](O)C5)CC6)cc34)ccc21` (stereo partly drawn) [Example 51, 8-(5-(7-((R)-3-Hydroxypyrrolidin-1-yl)-6,7,8,9-tetrahydro-5H-benzo[7]annulen-2-yl)-1H-pyrazolo[3,4-b]pyridin-3-yl)-3,4-dihydrobenzo[f][1,4]oxazepin-5(2H)-one], the IC50 at Axl [1] was 100 to 1000 nM; against Axl [2], below 100 nM.
For `O=C1NCCOc2cc(-c3n[nH]c4ncc(-c5ccc6c(c5)CCC(N5CCC5)CC6)cc34)ccc21` (centres unmarked) [Example 52, 8-(5-(7-(Azetidin-1-yl)-6,7,8,9-tetrahydro-5H-benzo[7]annulen-2-yl)-1H-pyrazolo[3,4-b]pyridin-3-yl)-3,4-dihydrobenzo[f][1,4]oxazepin-5(2H)-one], in that order: below 100 nM and below 100 nM.
For `O=C1NCCOc2cc(-c3n[nH]c4ncc(-c5ccc6c(c5)CCNCC6)cc34)ccc21` [Example 53, 8-(5-(2,3,4,5-Tetrahydro-1H-benzo[d]azepin-7-yl)-1H-pyrazolo[3,4-b]pyridin-3-yl)-3,4-dihydrobenzo[f][1,4]oxazepin-5(2H)-one], in that order: 100 to 1000 nM and below 100 nM.
The matching figures for `O=C1NCCOc2cc(-c3n[nH]c4ncc(-c5ccc6c(c5)CCNC6)cc34)ccc21` [Example 54, 8-(5-(1,2,3,4-Tetrahydroisoquinolin-6-yl)-1H-pyrazolo[3,4-b]pyridin-3-yl)-3,4-dihydrobenzo[f][1,4]oxazepin-5(2H)-one]: 100 to 1000 nM and below 100 nM.
Consider `O=C1NCCOc2cc(-c3n[nH]c4ncc(-c5ccc6c(c5)CNCC6)cc34)ccc21` [Example 55, 8-(5-(1,2,3,4-Tetrahydroisoquinolin-7-yl)-1H-pyrazolo[3,4-b]pyridin-3-yl)-3,4-dihydrobenzo[f][1,4]oxazepin-5(2H)-one], for which the IC50 is 100 to 1000 nM on Axl [1] and below 100 nM against Axl [2].
For `C[C@@H]1CCCN1C1CCc2cc(F)c(-c3cnc4[nH]nc(-c5ccc6c(c5)OCCNC6=O)c4c3)cc2CC1` (stereo partly drawn) [Example 58, 8-(5-{3-Fluoro-7-[(2R)-2-methylpyrrolidin-1-yl]-6,7,8,9-tetrahydro-5H-benzo[7]annulen-2-yl}-1H-pyrazolo[3,4-b]pyridin-3-yl)-2,3,4,5-tetrahydro-1,4-benzoxazepin-5-one], in that order: below 100 nM and below 100 nM.
Consider `C[C@@H]1CNC(=O)c2ccc(-c3n[nH]c4ncc(-c5ccc6c(c5)CCC(N5CCC[C@H]5C)CC6)cc34)cc2O1` (stereo partly drawn) [Example 59, (2R)-2-Methyl-8-(5-{7-[(2R)-2-methylpyrrolidin-1-yl]-6,7,8,9-tetrahydro-5H-benzo[7]annulen-2-yl}-1H-pyrazolo[3,4-b]pyridin-3-yl)-2,3,4,5-tetrahydro-1,4-benzoxazepin-5-one], for which the IC50 on Axl [1] and against Axl [2] was below 100 nM in each case.
For the molecule `C[C@@H]1CCCN1C1CCc2ccc(-c3cnc4[nH]nc(-c5ccc6c(c5F)OCCNC6=O)c4c3)cc2CC1` (stereo partly drawn) [Example 60, 9-Fluoro-8-(5-{7-[(2R)-2-methylpyrrolidin-1-yl]-6,7,8,9-tetrahydro-5H-benzo[7]annulen-2-yl}-1H-pyrazolo[3,4-b]pyridin-3-yl)-2,3,4,5-tetrahydro-1,4-benzoxazepin-5-one], the IC50 at Axl [1] and at Axl [2] was below 100 nM throughout.
On to `C[C@@H]1CCCN1C1CCc2ccc(-c3cnc4[nH]nc(-c5cc6c(cc5F)C(=O)NCCO6)c4c3)cc2CC1` (stereo partly drawn) [Example 61, 7-Fluoro-8-(5-{7-[(2R)-2-methylpyrrolidin-1-yl]-6,7,8,9-tetrahydro-5H-benzo[7]annulen-2-yl}-1H-pyrazolo[3,4-b]pyridin-3-yl)-2,3,4,5-tetrahydro-1,4-benzoxazepin-5-one], for which the IC50 at Axl [1] and against Axl [2] was below 100 nM each time.
`C[C@@H]1CCCN1C1CCc2ccc(-c3cnc4[nH]nc(-c5ccc6c(c5)O[C@@H](C)CNC6=O)c4c3)cc2CC1` (stereo partly drawn) [Example 62, (2S)-2-Methyl-8-(5-{7-[(2R)-2-methylpyrrolidin-1-yl]-6,7,8,9-tetrahydro-5H-benzo[7]annulen-2-yl}-1H-pyrazolo[3,4-b]pyridin-3-yl)-2,3,4,5-tetrahydro-1,4-benzoxazepin-5-one]: the IC50 at Axl [1] and against Axl [2] was below 100 nM each time.
Turning to `O=C1NCCOc2cc(-c3n[nH]c4ncc(-c5ccc6c(n5)CCC(N5CCCC5)CC6)cc34)ccc21` (centres unmarked) [Example 63, 8-{5-[7-(Pyrrolidin-1-yl)-5H,6H,7H,8H,9H-cyclohepta[b]pyridin-2-yl]-1H-pyrazolo[3,4-b]pyridin-3-yl}-2,3,4,5-tetrahydro-1,4-benzoxazepin-5-one], the IC50 on Axl [1] was 100 to 1000 nM; on Axl [2] it was below 100 nM.
For `Cc1cc2c(cc1-c1cnc3[nH]nc(-c4ccc5c(c4)OCCNC5=O)c3c1)CCC(N1CCC[C@H]1C)CC2` (stereo partly drawn) [Example 64, 8-(5-{3-Methyl-7-[(2R)-2-methylpyrrolidin-1-yl]-6,7,8,9-tetrahydro-5H-benzo[7]annulen-2-yl}-1H-pyrazolo[3,4-b]pyridin-3-yl)-2,3,4,5-tetrahydro-1,4-benzoxazepin-5-one], in that order: below 100 nM and below 100 nM.
The matching figures for `C[C@@H]1CCCN1C1CCc2cc(-c3cnc4[nH]nc(-c5ccc6c(c5)OCCNC6=O)c4c3)cc(Cl)c2CC1` (stereo partly drawn) [Example 65, 8-(5-{4-Chloro-7-[(2R)-2-methylpyrrolidin-1-yl]-6,7,8,9-tetrahydro-5H-benzo[7]annulen-2-yl}-1H-pyrazolo[3,4-b]pyridin-3-yl)-2,3,4,5-tetrahydro-1,4-benzoxazepin-5-one]: below 100 nM and below 100 nM.
